# Experimental data reported in patent US20250213478A1, “CATIONIC LIPID HAVING DISULFIDE BOND, LIPID MEMBRANE STRUCTURE INCLUDING SAME, NUCLEIC ACID INTRODUCTION AGENT AND PHARMACEUTICAL COMPOSITION CONTAINING ANY ONE OF SAME, METHOD FOR INTRODUCING NUCLEIC ACID INTO CELL OR TARGET CELL, AND METHOD FOR PRODUCING CELLULAR PHARMACEUTICAL” (NOF Corporation, priority 2022, published 2025).
# Experiments:
# [1] = Measurement of Liposomal pKa of LNP (TNS fluorescence); type: physicochemical; conditions: LNP without nucleic acid, cationic lipid:DOPC:Chol=52.5:7.5:40 + about 1.5 mol DMG-PEG2k; pH at which relative TNS fluorescence intensity was 50%
# Procedure: Lipid nanoparticles (LNP) without containing nucleic acid were used for the evaluation of Liposomal pKa.
# (§1) A 10 mM ethanol solution of cationic lipid, a 5 mM ethanol solution of DOPC, and a 10 mM ethanol solution of Chol were mixed at desired ratio (cationic lipid:DOPC:Chol=52.5:7.5:40 (molar ratio)) in an Eppendorf tube to achieve the total lipid amount of 720 nmol. To the obtained mixture was further added DMG-PEG2k (2 mM ethanol solution) in an amount of about 1.5 mol with respect to the total amount 100 mol of cationic lipid, DOPC, and Chol, and then ethanol was added to prepare an ethanol solution of the lipid (total amount: 360 μL).
# (§2) An acidic malic acid buffer (20 mM, pH 3.0) (1080 μL) containing NaCl at a final concentration of 30 mM and an ethanol solution (360 μL) of lipid were each weighed in a syringe. Using an ultra high-speed nanomedicament producing apparatus NanoAssmblr (manufactured by Precision NanoSystems), LNP was prepared under the conditions of addition rate of acidic buffer solution: 3 mL/min, addition rate of ethanol solution of lipid: 1 mL/min, and syringe holder temperature: 25° C., and collected in a 15 mL tube. MES buffer (pH 6.5) (3000 μL) was added to the 15 mL tube, the obtained mixture was transferred to Amicon Ultra 4, and ultrafiltration was performed under centrifugation conditions (25° C., 1000 g, 6 min) to concentrate the mixture to about 100 μL. The obtained concentrate was diluted with PBS to 4 mL, and the mixture was concentrated again under centrifugation conditions (25° C., 1000 g, 6 min), and this operation was performed twice. The obtained concentrate was diluted with PBS to a lipid concentration of 0.5 mM to give a dispersion containing LNP.
# 20 mM Citrate buffer, sodium phosphate buffer, and tris HCl buffer, each containing NaCl at a final concentration of 150 mM and adjusted to various pHs within the range of pH 3.0 to 10.0, were prepared. TNS (manufactured by Sigma) was diluted with ultrapure water to 0.6 mM. TNS solution (2 μL), dispersions (12 μL) containing LNP prepared in [Experimental Example 1], 1., and buffers adjusted to various pHs (186 μL) were added to a black 96 well plate. The plate was protected from light and shaken at 400 rpm for 10 min. The fluorescence intensity (excitation: 321 nm/emission: 447 nm) was measured using a plate reader (manufactured by TECAN). The relative fluorescence intensity was calculated as a percentage, with the maximum value of the fluorescence intensity in each LNP being 100% and the minimum value being 0%. Furthermore, the pH at which the relative fluorescence intensity was 50% was taken as Liposomal pKa. In Comparative Example, the cationic lipid described in the aforementioned Table 3 were used.
# [2] = Particle size, PdI and zeta potential of mRNA-encapsulating LNPs (dynamic light scattering); type: physicochemical; conditions: mRNA-encapsulating LNP, cationic lipid:DOPC:Chol=55:5:40 + about 1 mol DMG-PEG2k; for PdI / particle size: dynamic light scattering; for zeta potential: physiological pH
# Procedure: as §1, with “lipid:DOPC:Chol=55:5:40” for “lipid:DOPC:Chol=52.5:7.5:40”, “1” for “1.5”
# An acidic buffer solution (total amount: 1080 μL) of nucleic acid was prepared by weighing 7.2 μg of mRNA solution (0.6 mg/mL) in a 5 mL tube and adding acidic malate buffer (20 mM, pH 3.0) containing NaCl at a final concentration of 30 mM.
# as §2, with “buffer solution of nucleic” for “malic”, “acid” for “acid buffer (20 mM, pH 3.0) (1080 μL) containing NaCl at a final concentration of 30 mM”, “solution” for “solution (360 μL)”, “solution of nucleic acid:” for “solution:”, “2” for “0.5”
# The particle size, PdI (Polydispersity Index), and zeta potential of the mRNA-encapsulating LNP prepared by the method of the above-mentioned 1 were measured by a dynamic light scattering method. In Comparative Example, the cationic lipid described in the aforementioned Table 3 were used.
# HeLa cells = experiment: Evaluation of in vitro gene expression in HeLa cell (luciferase mRNA-encapsulating LNP); type: cell-based, human; conditions: for cumulative luciferase luminescence intensity over 24 hr: luciferase mRNA 0.4 μg per dish, LNP cationic lipid:DOPC:Chol:DMG-PEG2k=55:5:40:1; for gene expression activity compared to Comparative Example: result in words
# Procedure: (§3) LNP encapsulating mRNA that expresses luciferase (cationic lipid:DOPC:Chol:DMG-PEG2k=55:5:40:1 (molar ratio)) was prepared by the method described in [Experimental Example 2], 1.
# HeLa cells, which are human cervical cancer cells, were seeded in a 3.5 cm dish at 5.0×10^4 cells/2 mL/Dish 24 hours before transfection. After 24 hours, the medium was exchanged with a culture medium (D-MEM) containing 0.1 mM D-luciferin. Prepared mRNA-encapsulating LNP was diluted with PBS such that the concentration of mRNA was about 8 μg/mL. The diluted mRNA-encapsulating LNP solution (about 50 μL, mRNA: 0.4 μg) was added to the 3.5 cm dish and set in an incubator luminometer KronosDio. The luminescence intensity of luciferase was measured for 2 min every one hour. The cumulative luciferase luminescence intensity for 24 hr was calculated from the obtained time change of expression. For example, “1.0E+06” means “1.0×10^6”. In Comparative Example, the cationic lipid described in the aforementioned Table 3 were used.
# BALB/c mouse = experiment: Evaluation of in vivo gene expression (luciferase mRNA-encapsulating LNP, IVIS of isolated organs)
# Procedure: as §3
# The prepared each mRNA-encapsulating LNP dispersion was administered from the tail vein of BALB/c mouse (male, 5-week-old). The dose of mRNA was set to 0.05 mg per 1 kg body weight of the mouse, and the dose of the mRNA-encapsulating LNP dispersion was set to 10 μL per 1 g body weight of the mouse. After 4.5 hr from the administration of the mRNA-encapsulating LNP dispersion, a PBS solution of D-luciferin potassium was administered into the abdominal cavity of the mouse. The dose of D-luciferin potassium was set to 3 mg per mouse, and the dose of the PBS solution of D-luciferin potassium was set to 200 μL per mouse. After 15 min from the administration of the PBS solution of D-luciferin potassium, the mouse was euthanized, and the liver, spleen, kidney, heart, and lung were isolated. The luminescence in each organ was quantified using an in vivo imaging system (IVIS) with an exposure of 10 sec. The amount of luminescence in each organ was quantified by image analysis using Live Imaging software attached to IVIS. The amount of luminescence (photons/sec) was calculated from the acquired image and used as an index of gene expression activity. “E+0a” (a: integer) indicated in Table 7 and Table 8 means “10^a”. For example, “1.0E+02” means “1.0×10^2”. In Comparative Example, the cationic lipid described in the aforementioned Table 3 were used.
pKa [1],PdI [2],particle size [2] [nm],zeta potential [2] [mV],SMILES,cumulative luciferase luminescence intensity over 24 hr (HeLa cells) [RLU],also measured
5.7,0.072,82,−3.4,CCCCCCCCC(CCCCCC)C(=O)Oc1ccc(CC(=O)OCCSSCCOC(=O)CN(C)C)cc1 (stereo not drawn) [Example 1],–,–
5.7,0.072,84,−2.9,CCCCCCCCCCC(CCCCCCCCCC)C(=O)Oc1ccc(CC(=O)OCCSSCCOC(=O)CN(C)C)cc1 [Example 2],–,–
–,0.078,90,−3.0,CCCCCCCCCCCCCCC(CCCCCCCCCCCCCC)C(=O)Oc1ccc(CC(=O)OCCSSCCOC(=O)CN(C)C)cc1 [Example 3],–,–
7.8,0.116,64,12.2,CCCCCCCCC(CCCCCC)C(=O)Oc1ccc(CC(=O)OCCSSCCOC(=O)CCCN(C)C)cc1 (stereo not drawn) [Example 4],3.09E+05,–
–,0.071,67,−4.1,CCCCCCCC/C=C\CCCCCCCC(=O)Oc1ccc(CC(=O)OCCSSCCOC(=O)CN(C)C)cc1OC(=O)CCCCCCC/C=C\CCCCCCCC [Example 14],–,–
6.4,0.067,97,−2.5,CCCCCCCCCCCCCCCCC(CCCCCCCCCCCCCCCC)C(=O)Oc1ccc(CC(=O)OCCSSCCN(C)C)cc1 [Example 16],–,–
8.8,–,–,–,CCCCCCCCCCCCCCCCC(CCCCCCCCCCCCCCCC)C(=O)Oc1ccc(CC(=O)NCCSSCCNC(=O)CCCN(C)C)cc1 [Example 20],–,"relative value based on Comparative Example (amount of luminescence in spleen) (BALB/c mouse; spleen, relative to O-Ph-P4C2 LNP = 1.00): 0.05; amount of luminescence in each organ: heart (BALB/c mouse; tail vein, mRNA 0.05 mg/kg, 4.5 hr + 15 min after administration, heart): 6.26E+05 photons/sec; amount of luminescence in each organ: kidney (BALB/c mouse; tail vein, mRNA 0.05 mg/kg, 4.5 hr + 15 min after administration, kidney): 4.34E+05 photons/sec; amount of luminescence in each organ: liver (BALB/c mouse; tail vein, mRNA 0.05 mg/kg, 4.5 hr + 15 min after administration, liver): 4.95E+05 photons/sec; amount of luminescence in each organ: lung (BALB/c mouse; tail vein, mRNA 0.05 mg/kg, 4.5 hr + 15 min after administration, lung): 3.68E+05 photons/sec; amount of luminescence in each organ: spleen (BALB/c mouse; tail vein, mRNA 0.05 mg/kg, 4.5 hr + 15 min after administration, spleen (Table 7)): 5.18E+05 photons/sec"
5.7,–,–,–,CCCCCCCCCCCCCCCCC(CCCCCCCCCCCCCCCC)C(=O)Oc1ccc(CC(=O)OCCSSCCOC(=O)NCCN2CCOCC2)cc1 [Example 26],3.29E+05,–
5.7,–,–,–,CCCCCCCCCCCCCCCCC(CCCCCCCCCCCCCCCC)C(=O)Oc1ccc(CC(=O)OCCSSCCOC(=O)NCCN(CCCC)CCCC)cc1 [Example 27],9.60E+05,–
7.2,–,–,–,CCCCCCCCCCCCCCCC(=O)OCC(C)(COC(=O)CCCCCCCCCCCCCCC)C(=O)Oc1ccc(CC(=O)OCCSSCCOC(=O)NCCN(CC)CC)cc1 [Example 32],8.77E+07,gene expression activity compared to Comparative Example (HeLa cells): superior gene expression activity
7.1,–,–,–,CCCCCCCCCCCCCCCCCC(=O)OCC(C)(COC(=O)CCCCCCCCCCCCCCCCC)C(=O)Oc1ccc(CC(=O)OCCSSCCOC(=O)NCCN(CC)CC)cc1 [Example 33],5.38E+06,–
–,0.106,106,−3.8,CCCCCCCCCCCCCCCCC(CCCCCCCCCCCCCCCC)C(=O)Oc1ccc(CC(=O)OCCSSCCOC(=O)/C=C/CN(C)C)cc1 [Example 38],1.31E+05,–
–,0.128,107,−5.3,CCCCCCCCCCCCCCCCC(CCCCCCCCCCCCCCCC)C(=O)Oc1ccc(CC(=O)OCCSSCCOC(=O)/C=C/CN(CC)CC)cc1 [Example 39],3.95E+04,–
–,0.104,89,0.1,CCCCCCCCCCCCCCCCC(CCCCCCCCCCCCCCCC)C(=O)Oc1ccc(CC(=O)OCCSSCCOC(=O)/C=C/CN(CC)CCO)cc1 [Example 40],2.33E+05,–
–,0.091,80,4.0,CCCCCCCCCCCCCCCCC(CCCCCCCCCCCCCCCC)C(=O)Oc1ccc(CC(=O)OCCCCSSCCCCOC(=O)CCCN(C)C)cc1 [Example 41],–,–
7.3,–,–,–,CCCCCCCC/C=C\CCCCCCCC(=O)Oc1ccc(CC(=O)OCC(C)(COC(=O)Cc2ccc(OC(=O)CCCCCCC/C=C\CCCCCCCC)cc2)C(=O)OCCSSCCOC(=O)NCCN(CC)CC)cc1 [Example 42],3.62E+07,gene expression activity compared to Comparative Example (HeLa cells): superior gene expression activity
